According to patent US20250304545A1, “WATER-SOLUBLE HETEROCYCLYL POLYMETHINE CHROMOPHORES” (The Regents of the University of California, priority 2022, published 2025):

Key:
[1] = Photophysical properties of exemplary compounds in DCM solution; type: physicochemical; conditions: for λmax (first value of the cell): first of two wavelengths; for λmax (second value of the cell): second of two wavelengths
[2] = reference value; cited from earlier work
[3] = Systemic vasculature SWIR imaging with SulfoChrom7, compared with ICG; type: in vivo, mice; conditions: for distribution within 30 min: co-injection of SulfoChrom7 and ICG, 10 nmol each i.v.
Method: (§1) Animal experiments were conducted in conformity with guidelines from the University of California, Los Angeles with protocols approved by the Animal Research Committee (protocol number ARC-2018-047). Non-invasive whole mouse imaging was performed on athymic nude female mice (5-15 weeks old), purchased from Charles River Laboratories. Mice were anesthetized with inhaled 2-4% isoflurane. Tail vein injections were performed with a catheter assembled from a 29-gauge needle connected through plastic tubing to a syringe prefilled with isotonic saline solution. The bevel of the needle was then inserted into the tail vein and secured using tissue adhesive. The plastic tubing was then connected to a syringe (30-gauge needle) prefilled with the compound of interest. All solutions were filtered through a 0.22 μm syringe filter prior to i.v. injection.
(§2) Imaging instrument was installed according to published procedure, using an Allied Vision Goldeye G-032 Cool TEC2 camera with illumination from LU0975DLU350-S30AN03 (35 W, 975 nm laser) and LU0785D250-U70AN (25 W, 785 nm laser) Lumics laser units to record images at 14-bit depth. Illumination was adjusted to 100 mW/cm^2 for 975 nm and 50 mW/cm^2 for 785 mm. Excitation was provided at 975 nm for Sulfo-, Ammon-, Zwit- and PhosphoChrom7, and at 785 nm for ICG. Fluorescence images were recorded with an 1100 nm long-pass filter unless otherwise noted. Dual-channel imaging (SulfoChrom7/ICG, or fluorescent imaging/bright field imaging) was performed with pulsed excitation that matches the detection window of the camera, or persistent ambient fluorescent lighting for bright field images to be subtracted as background in the fluorescence channel.
Images were processed using the Fiji distribution of ImageJ. All images were background subtracted to correct for non-linearities in the detector and/or excitation. […] Videos were saved as raw avi and cropped, frame-rate adjusted and compressed with FFmpeg. For dual-channel imaging, emission of the SulfoChrom7 and AmmonChrom7 in 785 nm channel was estimated to be 9.0% intensity of their 975 nm image as derived from the capillary experiment, and subtracted from the 785 nm channel.

[4] = in vivo; cited from earlier work
[5] = system: SK-OV-3 tumors; assay: Fluorescence tracking of growth of SK-OV-3 tumor xenografts; type: in vivo, mice; conditions: 39 days after xenograft, 4 h after i.v. OTL-38
Method: A375 or SK-OV-3 cells were grown to confluency and incubated with full media supplemented with 50 μM of AmmonChrom7 for 12 h. Cells were then incubated with full media for 6 h, followed by digestion with trypsin-EDTA. The cell pellet was further washed with PBS (×3). For A375 cells, stained or unstained cells were suspended in 1:1 PBS and Matrigel; 100 μL of cell suspension (3.3 million cells) were injected to each site. Tumor 2D-projected sizes A were monitored by caliper measurement of long diameter a and short diameter b of the tumors and estimated by the following equation:
For SK-OV-3 cells, cells were suspended in 1:1 PBS and Matrigel; 100 μL of cell suspension (2.5 million cells) was injected to each site. […]
as §2, with “Illumination was adjusted to 100 mW/cm^2 for 975 nm and 50 mW/cm^2 for 785 mm. Excitation was provided at 975 nm for Sulfo-, Ammon-, Zwit- and PhosphoChrom7, and at 785 nm for ICG.” left out

[6] = Aggregation / monomeric dispersion by absorption spectra in water, MeOH/H2O and serum; type: physicochemical; conditions: for aggregation state: in water
Description: (§3) Absorption spectra were collected on a JASCO V-770 UV-visible/NIR spectrophotometer after blanking with the appropriate solvent. Photoluminescence spectra were obtained on a Horiba Instruments PTI QuantaMaster Series fluorometer. Fetal bovine serum (FBS) or bovine serum were purchased from Gibco. Quartz cuvettes (10 mm×10 mm) were used for absorption and photoluminescence measurements unless otherwise noted. All spectra were obtained at ambient temperature. Fluorescence quantum yield was measured with 830 nm excitation using Flav7 as a reference (ΦF=0.61%).

[7] = system: HEK293 cells; assay: MTT toxicity assay; type: cell-based; conditions: low concentrations
Method: HEK293 cells were split into three cultures as replicates. For each replicate, HEK293 cells were passed onto flat-bottomed 96-well plate to 40-50% confluency and left 6 h for adhesion. Different concentrations of compounds were added to the medium (1:40 dilution from aqueous stock solution) in quadruplicate and incubated for 18 h. After incubation, cells were treated with 100 μL of full media containing 0.5 mg/mL MTT for 2 h, followed by addition of 100 μL of aqueous solution containing 10% SDS and 1:1000 HCl. After 3-4 h incubation, cell viability was determined by measuring the absorbance at 490 nm using a plate reader.

[8] = Hydroxyapatite binding assay; conditions: 50 μM dye in bovine serum, sequential washes
Method: Hydroxyapatite powder was purchased from Acros Organics. To a suspension of 10 mg of hydroxyapatite in 100 μL of bovine serum was added 50 μM PhosphoChrom7 and the mixture was placed on a revolver for 30 min for initial binding, followed by centrifugation to remove supernatant. For washing, the pellet was resuspended in 100 μL of bovine serum by vortexing and placed on a revolver for 30 min followed by centrifugation to remove supernatant. The pellet was finally resuspended in 100 μL of bovine serum for imaging under the SWIR camera. For quantification, each centrifuge tube containing the suspension was recorded at the center of the illumination/viewing field to calculate mean fluorescence intensity at the bottom area of the tube.

[9] = Bone imaging in mice with PhosphoChrom7; type: in vivo
Method: as §1, §2
Images were processed using the Fiji distribution of ImageJ. All images were background subtracted to correct for non-linearities in the detector and/or excitation. […] Videos were saved as raw avi and cropped, frame-rate adjusted and compressed with FFmpeg. […]

[10] = Photophysical characterization of Chrom7 dyes (absorption, emission, quantum yield); type: physicochemical
Description: as §3

[11] = Stability assay in FBS; type: in vitro ADME; conditions: over 2 days at 37° C. in FBS, 1 μM dye
Method: Dyes were diluted to 1 μM in 1 mL of FBS containing 0.02% w/v NaN3 and placed in disposable cuvettes. The cuvettes were sealed with parafilm and placed in 37° C. incubator until given time points. Absorption spectra were taken using the maximum absorption to represent the dye concentration. Each condition was performed in triplicate.

[12] = system: HEK293 cells; assay: Uptake and retention of dyes in cells (absorbance of cell lysates); type: cell-based; conditions: 50 μM dye
Method: HEK293, SK-OV-3 or A375 cells were split into three cultures as replicates. For each replicate, cells were passed onto 12-well or 24-well plates and grown until ca. 80% confluency. Each well was incubated with 50 μM of AmmonChrom7 for 6 h, and the cells were washed with PBS and incubated in MEM medium supplemented with 1% FBS. At given time points, the cell media were removed and cells were lysed with lysis buffer (150 μL, containing 1% Triton X-100, 0.1% w/v SDS and 0.1% w/v sodium deoxycholate) and diluted with bovine serum (300 μL). The cell lysate was collected and frozen at −20° C. until analysis. To quantify dye content, maximum absorption was used to represent the dye concentration. Scattering was estimated and subtracted with absorption at 1050-1100 nm, using the following equation for fitting: […]

[13] = Biodistribution of water soluble SWIR fluorophores after i.v. injection; type: in vivo, mice; conditions: 20 nmol into tail vein
Method: as §1, with “The plastic tubing was then connected to a syringe (30-gauge needle) prefilled with the compound of interest. All solutions were filtered through a 0.22 μm syringe filter prior to i.v. injection.” left out
as §2, with “Illumination was adjusted to 100 mW/cm^2 for 975 nm and 50 mW/cm^2 for 785 mm. Excitation was provided at 975 nm for Sulfo-, Ammon-, Zwit- and PhosphoChrom7, and at 785 nm for ICG.” left out, “channel. […]” for “channel.”

[14] = Brightness comparison by SWIR imaging of dyes in FBS in capillaries; type: physicochemical
Method: as §2

## Cc1cc(C)cc(C2=C(/C=C/C3=CC(c4ccccc4)=[SH]c4cc(N(C)C)ccc43)CCC/C2=C\C=C2/C=C(c3ccccc3)Sc3cc(N(C)C)ccc32)c1 [DiMePh SFlav7]
[1]
  ϕF: 0.11 ± 0.01%
  λmax (first value of the cell): 1079 nm
  λmax (second value of the cell): 1107 nm

## CN(C)c1ccc2c(c1)SC(c1ccccc1)=C/C2=C\C=C1/CCCC(/C=C/c2cc(-c3ccccc3)[s+]c3cc(N(C)C)ccc23)=C1c1cc(C(C)(C)C)cc(C(C)(C)C)c1 [DitBuPh SFlav7]
[1]
  ϕF: 0.11 ± 0.02%
  λmax (first value of the cell): 1079 nm
  λmax (second value of the cell): 1107 nm

## CN(C)c1ccc2c(c1)OC(c1ccccc1)=C/C2=C\C=C1/CCCC(/C=C/c2cc(-c3ccccc3)[o+]c3cc(N(C)C)ccc23)=C1Cl [Flav7]
[2]
  ΦF of the reference for fluorescence quantum yield: 0.61%

## CC1(C)C(/C=C/C=C/C=C/C=C2\N(CCCCS(=O)(=O)O)c3ccc4ccccc4c3C2(C)C)=[N+](CCCCS(=O)(=O)[O-])c2ccc3ccccc3c21 [ICG, indocyanine green, reference compound]
[3]
  distribution within 30 min: most ICG accumulated in the liver with secretion into the intestine, leaving negligible signal in the mouse body
[4]
  time of hepatobiliary clearance: ≤ 6 h

## CC1(C)C(/C=C/C2=C(Oc3ccc(C[C@H](NC(=O)c4ccc(NCc5cnc6nc(N)[nH]c(=O)c6n5)cc4)C(=O)[O-])cc3)C(=C/C=C3\N(CCCCS(=O)(=O)[O-])c4ccc(S(=O)(=O)[O-])cc4C3(C)C)/CCC2)=[N+](CCCCS(=O)(=O)[O-])c2ccc(S(=O)(=O)[O-])cc21.[H+].[H+].[H+].[H+] [OTL-38]
[5]
  specificity of tumor staining ex vivo: much non-specific accumulation

## Cc1ccccc1C1=C(C=Cc2cc(C(C)(C)C)[o+]c3cc(N(Cc4cn(CCCP(=O)(O)O)nn4)Cc4cn(CCCP(=O)(O)O)nn4)ccc23)CCCC1=CC=C1C=C(C(C)(C)C)Oc2cc(N(Cc3cn(CCCP(=O)(O)O)nn3)Cc3cn(CCCP(=O)(O)O)nn3)ccc21 [PhosphoChrom7]
[6]; in FBS
  aggregation peak: 760 nm
  solubility: lower than the Sulfo-, Ammon-, or ZwitChrom7
[7]
  toxicity: mild
[8]
  binding towards hydroxyapatite: strong binding affinity
[9]; 54 h after i.v. injection
  organ distribution on dissection: the liver is the major target of the dye
[9]; after i.v. injection
  time at which bone structures begin to feature: 8 h
[9]; compared to previous hydrophilic dyes
  clearance: slightly faster clearance

## C#CCN(CC#C)c1ccc2c(c1)OC(C(C)(C)C)=C/C2=C\C=C1/CCCC(/C=C/c2cc(C(C)(C)C)[o+]c3cc(N(CC#C)CC#C)ccc23)=C1c1ccccc1C [Propargyl-Chrom7]
[10]; in MeOH
  εmax: 14 ± 1 10^4 M^−1cm^−1
  λmax: 928 nm

## Cc1ccccc1C1=C(C=Cc2cc(C(C)(C)C)[o+]c3cc(N(Cc4cn(CCCS(=O)(=O)[O-])nn4)Cc4cn(CCCS(=O)(=O)[O-])nn4)ccc23)CCCC1=CC=C1C=C(C(C)(C)C)Oc2cc(N(Cc3cn(CCCS(=O)(=O)[O-])nn3)Cc3cn(CCCS(=O)(=O)[O-])nn3)ccc21.[Na+].[Na+].[Na+] [SulfoChrom7]
[10]; in FBS
  εmax: 9.5 10^4 M^−1cm^−1
  λmax: 963 nm
  φF: 0.0056 ± 0.0003
[10]; in MeOH
  εmax: 16.5 ± 0.2 10^4 M^−1cm^−1
  λmax: 938 nm
  φF: 0.0106 ± 0.0002
[6]
  aggregation state: discernible monomer absorption
[11]
  fraction of dye left: around ½
[12]
  cellular uptake (absorbance of cell lysates): minimal
[13]
  distribution after 3 h: diffuse signal through the mouse body, but still with substantial liver accumulation
[3]; co-injection 10 nmol each, 1300 nm LP filter
  brightness ratio over ICG in veins, maximum over time: 7-8 fold
[3]
  distribution within 30 min: still reflected the superficial vasculature map while also displaying liver accumulation
[3]; tail vein, 33 fps, 1100 nm LP filter
  amount of dye that enables video-rate imaging of liver and vasculature: 0.05 nmol
[14]; derived from the capillary experiment
  emission in 785 nm channel as intensity of the 975 nm image: 9.0%
[14]; in FBS, 975 nm excitation (ICG 785 nm)
  SWIR brightness compared with ICG / among the dyes: brightest of the fluorophores

## Cc1ccccc1C1=C(C=Cc2cc(C(C)(C)C)[o+]c3cc(N(Cc4cn(CCC[N+](C)(C)CCCS(=O)(=O)[O-])nn4)Cc4cn(CCC[N+](C)(C)CCCS(=O)(=O)[O-])nn4)ccc23)CCCC1=CC=C1C=C(C(C)(C)C)Oc2cc(N(Cc3cn(CCC[N+](C)(C)CCCS(=O)(=O)[O-])nn3)Cc3cn(CCC[N+](C)(C)CCCS(=O)(=O)[O-])nn3)ccc21.[Cl-] [ZwitChrom7]
[10]; in FBS
  quantum yield: 0.32%
  εmax: 11.5 10^4 M^−1cm^−1
  λmax: 960 nm
  φF: 0.0032 ± 0.0003
[10]; in MeOH
  εmax: 16.4 ± 0.4 10^4 M^−1cm^−1
  λmax: 940 nm
  φF: 0.0101 ± 0.0004
[6]
  aggregation state: primarily aggregated
[11]
  fraction of dye left: 1/10
[12]
  cellular uptake (absorbance of cell lysates): minimal
[13]
  distribution after 3 h: diffuse signal through the mouse body, but still with substantial liver accumulation
